Measured values: US12692253B2, “Antimicrobial compounds and methods” (Curza Global, LLC, priority 2019, dated 2026)
Like-named read-outs stand apart in the source and are kept apart here.

Columns and labels:
[1] = target: Rabbit Reticulocyte Lysate (eukaryotic protein synthesis); assay: Rabbit reticulocyte lysate luciferase assay (inhibition of eukaryotic protein synthesis); format: biochemical; settings: read-out: Rabbit reticulocyte IC50 (μM/% inhib.)
Outline: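 Percent inhibition calculated against water-only controls from luminescence; background set by lysate lacking RNA. Compounds, 8-point 2-fold titration, incubated 90 minutes at 30° C with nuclease-treated rabbit reticulocyte lysate programmed with luciferase control RNA plus complete amino acids.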

[2] = tested on: E. coli S30 extract (bacterial protein synthesis); assay: E. coli S30 extract coupled transcription-translation luciferase assay (inhibition of bacterial protein synthesis); format: biochemical; settings: read-out: S30 IC50 (μM/% inhib.)
Outline: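 Luciferase luminescence quantified inhibition of protein synthesis relative to water controls, with no-DNA reactions giving background. Compounds in 2-fold serial dilution (8 levels) were incubated 1 hour at 37 °C with E. coli S30 extract, amino acids and pBESTluc plasmid, then chilled to stop.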

[3] = tested on: E. faecalis (Ef); assay: Broth microdilution minimum inhibitory concentration (MIC), CLSI; format: cell-based; settings: for MIC: Enterococcus faecalis, read-out: Ef + bicarb MIC
Outline: (§1)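 CLSI M07-A9 broth microdilution, slightly modified: 8 two-fold compound dilutions in triplicate, CAMHB ± bicarbonate (6.25 or 25 mM final) or 0-50% heat-inactivated human serum; 5×10^4 CFU/well.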

[4] = tested on: S. aureus (Sa); assay: as above; format: cell-based; settings: for MIC: Staphylococcus aureus, read-out: Sa + bicarb MIC
Outline: as §1

[5] = tested on: E. coli (Ec); assay: as above; format: cell-based; settings: for MIC: Escherichia coli, read-out: E. coli + bicarb MIC
Outline: as §1

[6] = tested on: P. aeruginosa (Pa); assay: as above; format: cell-based; settings: for MIC: Pseudomonas aeruginosa, read-out: Pa MIC + bicarb
Outline: as §1

[7] = tested on: A. baumannn (Ab); assay: as above; format: cell-based; settings: for MIC: read-out: Ab + bicarb MIC
Outline: as §1

[8] = class by IC50 or % inhibition @ 1 μM
[9] = growth medium supplemented with sodium bicarbonate
[10] = growth medium with sodium bicarbonate
[11] = A. baumannn, growth medium with sodium bicarbonate

Compound	IC50 [1, 8] [µM]	IC50 [2, 8] [µM]	MIC [3, 9] [µg/mL]	MIC [4, 9] [µg/mL]	MIC [5, 9] [µg/mL]	MIC [6, 9] [µg/mL]	MIC ([7]; Acinetobacter baumannii) [µg/mL]	IC50 ([1]; % inhibition @ 1 μM) [µM]	IC50 ([2]; % inhibition @ 1 μM) [µM]	MIC [3, 10] [µg/mL]	MIC [4, 10] [µg/mL]	MIC [5, 10] [µg/mL]	MIC [6, 10] [µg/mL]	MIC [7, 11] [µg/mL]	Ef + bicarb MIC [3, 9]	Sa + bicarb MIC [4, 9]	E. coli + bicarb MIC [5, 9]	Pa MIC + bicarb [6, 9]	Ab + bicarb MIC ([7]; A. baumannii, growth medium supplemented with sodium bicarbonate)
CC(Cc1ccc(-n2ccc(NC(=O)N3CCN(C(=O)C(C)(C)N)CC3)nc2=O)cc1)N1CC2(CC(N)C2)C1 (centres unmarked) [Compound 112]	≥ 1	0.5 to 1	8 to 32	< 8	< 8	> 32	> 32												
CC(Cc1ccc(-n2ccc(NC(=O)N3CCN(C(=O)C(C)(C)N)CC3)nc2=O)cc1)N(C)C1CC2(CC(N)C2)C1 (centres unmarked) [Compound 191]								≥ 1	≥ 1	< 8	< 8	< 8	8 to 32	8 to 32					
CC(Cc1ccc(-n2ccc(NC(=O)N3CCN(C(=O)C(C)(C)N)CC3)nc2=O)cc1)NC12CC(N)(C1)C2 (centres unmarked) [Compound 202]								≥ 1	≥ 1	> 32	> 32	> 32	> 32	8 to 32					
CC(Cc1ccc(-n2ccc(NC(=O)N3CCN(C(=O)C(C)(C)N)CC3)nc2=O)cc1)N(CC1CC1)C1CC2(CC(N)C2)C1 (centres unmarked) [Compound 194]								≥ 1	0.5 to 1	< 8	< 8	< 8	> 32	8 to 32					
CC(Cc1ccc(-n2ccc(NC(=O)N3CCN(C(=O)C(C)(C)N)CC3)nc2=O)cc1)N1CCC2(CC1)CC(N)C2 (centres unmarked) [Compound 114]	≥ 1	< 0.5	< 8	< 8	< 8	8 to 32	8 to 32												
CCC(Cc1ccc(-n2ccc(NC(=O)N3CCN(C(=O)C(C)(C)N)CC3)nc2=O)cc1)N1C[C@@H]2[C@@H](CN)[C@@H]2C1 (some centres unmarked) [Compound 135]	≥ 1	< 0.5	< 8	< 8	< 8	< 8	< 8												
C[C@](N)(CO)C(=O)N1CCN(C(=O)Nc2ccn(-c3ccc(CN4C[C@@H]5[C@@H](N)[C@@H]5C4)c(Cl)c3)c(=O)n2)CC1 [Compound 25]	≥ 1	< 0.5	> 32	< 8	< 8	> 32	> 32												
N[C@@H]1[C@H]2CN(Cc3ccc(-n4ccc(NC(=O)N5C[C@@H]6[C@@H](N)[C@@H]6C5)nc4=O)cc3)C[C@@H]12 [Compound 249]								≥ 1	≥ 1	> 32	> 32	8 to 32	> 32	> 32					
CC(C)(N)C(=O)N1CCN(C(=O)Nc2ccn(-c3ccc(CN4CC5CCC(C4)C5N)cc3)c(=O)n2)CC1 (centres unmarked) [Compound 29]	≥ 1	0.5 to 1	8 to 32	< 8	< 8	> 32	> 32												
NCCC1CCN(C(=O)Nc2ccn(-c3ccc(CN4C[C@@H]5[C@@H](N)[C@@H]5C4)cc3)c(=O)n2)CC1 [Compound 250]								≥ 1	≥ 1	> 32	> 32	> 32	> 32	> 32					
CC(C)N(C(C)Cc1ccc(-n2ccc(NC(=O)N3CCN(C(=O)C(C)(C)N)CC3)nc2=O)cc1)C1CC2(CC(N)C2)C1 (centres unmarked) [Compound 196]								≥ 1	≥ 1	> 32	> 32	> 32	> 32	> 32					
CC(C)(N)C(=O)N1CCN(C(=O)Nc2ccn(-c3ccc(CNC45CC(N)(C4)C5)cc3)c(=O)n2)CC1 [Compound 171]								≥ 1	≥ 1	> 32	> 32	8 to 32	> 32	> 32					
CC(C)(N)C(=O)N1C[C@H]2CN(C(=O)Nc3ccn(-c4ccc(CN5C[C@@H]6[C@@H](N)[C@@H]6C5)cc4)c(=O)n3)C[C@H]2C1 [Compound 246]								≥ 1	≥ 1	> 32	> 32	> 32	> 32	> 32					
NC[C@@H]1[C@H]2CN(C(=O)Nc3ccn(-c4ccc(CN5C[C@@H]6[C@@H](N)[C@@H]6C5)cc4)c(=O)n3)C[C@@H]12 [Compound 247]								≥ 1	≥ 1	> 32	> 32	> 32	> 32	> 32					
NC1CC2(CCN(C(=O)Nc3ccn(-c4ccc(CN5C[C@@H]6[C@@H](N)[C@@H]6C5)cc4)c(=O)n3)CC2)C1 [Compound 49]	≥ 1	< 0.5	8 to 32	< 8	< 8	> 32	> 32												
COc1cc(-n2ccc(NC(=O)N3CCN(C(=O)C(C)(C)N)CC3)nc2=O)ccc1CCN1C[C@@H]2[C@@H](CN)[C@@H]2C1 [Compound 132]	≥ 1	< 0.5	8 to 32	8 to 32	< 8	8 to 32	> 32												
CC(C)(N)C(=O)N1CCN(C(=O)Nc2ccn(-c3ccc(CN4CCC5(N)CC5C4)cc3)c(=O)n2)CC1 (centres unmarked) [Compound 23]	≥ 1	< 0.5													+++ (An MIC value (μg/mL) that is less than 8 μg/mL)	+++ (An MIC value (μg/mL) that is less than 8 μg/mL)	+++ (An MIC value (μg/mL) that is less than 8 μg/mL)	+ (An MIC (μg/mL) value that is 32 μg/mL or greater)	+ (An MIC (μg/mL) value that is 32 μg/mL or greater)
C[C@H](Cc1ccc(-n2ccc(NC(=O)N3CCN(C(=O)C(C)(C)N)CC3)nc2=O)cc1)N1C[C@@H]2[C@@H](CN)[C@@H]2C1 [Compound 140]	≥ 1	< 0.5	< 8	< 8	< 8	8 to 32	8 to 32												
CCC(Cc1ccc(-n2ccc(NC(=O)N3CCN(C(=O)C(C)(C)N)CC3)nc2=O)cc1C(F)(F)F)N1C[C@@H]2[C@@H](CN)[C@@H]2C1 (some centres unmarked) [Compound 211]								≥ 1	0.5 to 1	< 8	< 8	< 8	> 32	8 to 32					
CC(C)C(Cc1ccc(-n2ccc(NC(=O)N3CCN(C(=O)C(C)(C)N)CC3)nc2=O)cc1)N1C[C@@H]2[C@@H](CN)[C@@H]2C1 (some centres unmarked) [Compound 155]	≥ 1	< 0.5	< 8	< 8	< 8	< 8	< 8												
